Assay results reported in US20180243325A1, “METHOD FOR INHIBITING ABSORPTION OF AND/OR PROMOTING EXCRETION OF LIPIDS USING D-PSICOSE” (CJ CHEILJEDANG CORPORATION, priority 2015, published 2018).

Key:
Assay type in all cases: in vivo, C57BL/6J mice
[1] = test system: high-fat diet-induced obese mice; assay: Hepatic lipid profiles; settings: FIG. 4A, HFD+5% w/w in diet, 16 weeks
Protocol: (§1) First, 4-week-old male C57BL/6J mice (60 total) were purchased from Jackson Laboratory. The animals were acclimated to the vivarium in a thermo-hygrostat (20-23° C., 45-65%) under a 12 h light/dark cycle and fed a pelletized commercial non-purified diet for 1 week after arrival. The mice were then randomly divided into 6 groups (n=10) and fed the respective experimental diets for 16 weeks: normal diet group (ND, American Institute of Nutrition (AIN)-76 semi-synthetic diet), high-fat diet group (HFD, 20% fat+1% cholesterol based on AIN-76 diet), PSI group (HFD+5% D-psicose, w/w, Sigma Chemical Company), ERY group (HFD+5% erythritol, w/w, Sigma Chemical Company), GLU group (HFD+5% D-glucose, w/w, Sigma Chemical Company), and FRU group (HFD+5% D-fructose, w/w, Sigma Chemical Company). All high-fat diet-fed groups were allowed to ingest the same calories by pair feeding based on the PSI group. The mice had ad libitum access to distilled water during the experimental period. Their feed intakes and body weights were measured daily and biweekly, respectively. The organ weights and the adipose tissue weights of the mice were measured after sacrificing the animals.
Hepatic lipids were extracted from mice in the normal diet group (ND) and high-fat diet groups (HFD, ERY, GLU, FRU, and PSI) and dried. Then, each of the dried hepatic lipid extracts was dissolved in 1 ml of ethanol. 200 μl of the lipid solution was emulsified in a solution of Triton X-100 and sodium cholate in distilled water. Hepatic fatty acid, triglyceride, and cholesterol levels were analyzed using the same enzymatic kits as those used in Example 2.

Fatty acid β-oxidation = Fatty acid β-oxidation activity in adipose tissue; settings: FIG. 5A, epididymal white adipose tissue, HFD+5% w/w in diet, 16 weeks
Protocol: as §1, with “animals. Samples were prepared and analyzed according to the method developed by Hulcher and Oleson. Specifically, the activity of fatty acid synthase (FAS) as a lipid regulating enzyme of epididymal white adipose tissue was measured by spectrophotometric assay according to the method described by Nepokroeff et al. Each sample was mixed with 100 μl of cytoplasmic fraction and the mixture was allowed to react at 30° C. for 2 min. A reduction in absorbance at 340 nm was measured. FAS activity units were expressed as nanomoles (nmol) of NADPH oxidized for 1 min per mg of cytoplasmic fraction. Fatty acid β-oxidation activity was measured by monitoring the reduction of NAD^+ to NADH in the presence of palmitoyl-CoA, as described by Lazarow. β-oxidation activity units were expressed as nanomoles (nmol) of NADH produced for 1 min per mg of mitochondrial protein.” for “animals.”

[2] = test system: ACC1 (Acetyl-CoA carboxylase 1, 107476); assay: Hepatic mRNA expression, real-time quantitative PCR: ACC1; settings: FIG. 6, liver, HFD+5% w/w in diet, 16 weeks
Protocol: as §1
(§2) Samples were prepared and analyzed as previously described. Specifically, total RNA was synthesized into cDNA using a QuantiTect Reverse Transcription kit (QIAGEN Gmb1h, Hilden, Germany). RNA expression was quantified with real-time quantitative PCR using a QuantiTect SYBR Green PCR kit (QIAGEN Gmb1h, Hilden, Germany). Primers were designed to detect FAS (fatty acid synthase, 14101), ACC1 (Acetyl-CoA carboxylase 1, 107476), CPT1α (Carnitine palmitoyltransferase 1α, 12894), and CPT2 (Carnitine palmitoyltransferase 2, 12896). GAPDH was used as an internal transcription marker. The reaction was performed a total of 40 cycles (each consisting of 15 sec at 94° C., 30 sec at 58° C., 30 sec at 72° C., and 15 sec at 65° C.). Fluorescence signals were monitored every cycle and the resulting threshold cycles (Ct) were analyzed. mRNA expression in each experimental group was quantified using a CFX96 Real time system (Bio-rad, USA).

[3] = test system: CPT2 (Carnitine palmitoyltransferase 2, 12896); assay: Hepatic mRNA expression, real-time quantitative PCR: CPT2; settings: FIG. 6, liver, HFD+5% w/w in diet, 16 weeks
Protocol: as §1, §2

[4] = test system: FATP4 (fatty acid transporter 4, 26569); assay: Small intestine mRNA expression, real-time quantitative PCR: FATP4; settings: FIG. 8, HFD+5% w/w in diet, 16 weeks
Protocol: as §1
as §2, with “CD36 (cluster of differentiation 36, 12491), ApoB48 (apolipoprotein B 48, 238055), FATP4” for “FAS”, “transporter 4, 26569), ABCG5 (ATP-binding cassette sub-family G member5, 27409),” for “synthase, 14101), ACC1 (Acetyl-CoA carboxylase 1, 107476), CPT1α (Carnitine palmitoyltransferase 1α, 12894),”, “ABCG8 (ATP-binding cassette sub-family G member8, 67470).” for “CPT2 (Carnitine palmitoyltransferase 2, 12896).”

[5] = test system: ApoB48 (apolipoprotein B 48, 238055); assay: Small intestine mRNA expression, real-time quantitative PCR: ApoB48; settings: FIG. 8, HFD+5% w/w in diet, 16 weeks
Protocol: as §1
as §2, with “CD36 (cluster of differentiation 36, 12491), ApoB48 (apolipoprotein B 48, 238055), FATP4” for “FAS”, “transporter 4, 26569), ABCG5 (ATP-binding cassette sub-family G member5, 27409),” for “synthase, 14101), ACC1 (Acetyl-CoA carboxylase 1, 107476), CPT1α (Carnitine palmitoyltransferase 1α, 12894),”, “ABCG8 (ATP-binding cassette sub-family G member8, 67470).” for “CPT2 (Carnitine palmitoyltransferase 2, 12896).”

[6] = test system: ABCG5 (ATP-binding cassette sub-family G member5, 27409); assay: Small intestine mRNA expression, real-time quantitative PCR: ABCG5; settings: high-fat diet-fed obese mice
Protocol: First, 4-week-old male C57BL/6J mice (60 total) were purchased from Jackson Laboratory. The animals were acclimated to the vivarium in a thermo-hygrostat (20-23° C., 45-65%) under a 12 h light/dark cycle and fed a pelletized commercial non-purified diet for 1 week after arrival. […] Their feed intakes and body weights were measured daily and biweekly, respectively. The organ weights and the adipose tissue weights of the mice were measured after sacrificing the animals.
Samples were prepared and analyzed as previously described. Specifically, total RNA was synthesized into cDNA using a QuantiTect Reverse Transcription kit (QIAGEN Gmb1h, Hilden, Germany). RNA expression was quantified with real-time quantitative PCR using a QuantiTect SYBR Green PCR kit (QIAGEN Gmb1h, Hilden, Germany). […] Fluorescence signals were monitored every cycle and the resulting threshold cycles (Ct) were analyzed. mRNA expression in each experimental group was quantified using a CFX96 Real time system (Bio-rad, USA).

## OC[C@@H](O)[C@@H](O)CO [ERY, erythritol]
[1]
  hepatic cholesterol level: significantly higher than those in the ND group
  hepatic fatty acid level: significantly higher than those in the ND group
  hepatic triglyceride level: significantly higher than those in the ND group
Fatty acid β-oxidation
  fatty acid β-oxidation activity in adipose tissue: decreased significantly compared to those in the ND group
[2]
  hepatic mRNA expression level of ACC1: significantly lower than those in the ND group
[3]
  hepatic mRNA expression level of CPT2: significantly lower than those in the ND group
[4]
  mRNA expression level of FATP4 in the small intestine: significantly higher
[5]
  mRNA expression level of ApoB48 in the small intestine: significantly higher

## O=C(CO)[C@@H](O)[C@H](O)[C@H](O)CO [FRU, D-fructose]
[1]
  hepatic cholesterol level: significantly higher than those in the ND group
  hepatic fatty acid level: significantly higher than those in the ND group
  hepatic triglyceride level: significantly higher than those in the ND group
Fatty acid β-oxidation
  fatty acid β-oxidation activity in adipose tissue: decreased significantly compared to those in the ND group
[2]
  hepatic mRNA expression level of ACC1: significantly lower than those in the ND group
[3]
  hepatic mRNA expression level of CPT2: significantly lower than those in the ND group
[4]
  mRNA expression level of FATP4 in the small intestine: significantly higher
[5]
  mRNA expression level of ApoB48 in the small intestine: significantly higher

## O=C[C@H](O)[C@@H](O)[C@H](O)[C@H](O)CO [GLU, D-glucose]
[1]
  hepatic cholesterol level: significantly higher than those in the ND group
  hepatic fatty acid level: significantly higher than those in the ND group
  hepatic triglyceride level: significantly higher than those in the ND group
Fatty acid β-oxidation
  fatty acid β-oxidation activity in adipose tissue: decreased significantly compared to those in the ND group
[2]
  hepatic mRNA expression level of ACC1: significantly lower than those in the ND group
[3]
  hepatic mRNA expression level of CPT2: significantly lower than those in the ND group
[4]
  mRNA expression level of FATP4 in the small intestine: significantly higher
[5]
  mRNA expression level of ApoB48 in the small intestine: significantly higher

## O=C(CO)[C@H](O)[C@H](O)[C@H](O)CO [PSI, D-psicose]
[1]
  hepatic cholesterol level: decreased significantly compared to those in other high-fat diet groups
  hepatic fatty acid level: decreased significantly compared to those in other high-fat diet groups
  hepatic triglyceride level: decreased significantly compared to those in other high-fat diet groups
Fatty acid β-oxidation
  fatty acid β-oxidation activity in adipose tissue: increased significantly compared to those in other high-fat diet groups
[2]
  hepatic mRNA expression level of ACC1: much significantly lower than those in the ND group
[3]
  hepatic mRNA expression level of CPT2: much significantly lower than those in the ND group
[4]
  mRNA expression level of FATP4 in the small intestine: significantly lower in the PSI group than those in other high-fat diet groups
[4]; listed as D-psicose
  mRNA expression level of FATP4 in the small intestine: reduces mRNA expression
[5]
  mRNA expression level of ApoB48 in the small intestine: significantly lower in the PSI group than those in other high-fat diet groups
[5]; listed as D-psicose
  mRNA expression level of ApoB48 in the small intestine: reduces mRNA expression
[6]
  mRNA expression of ABCGS (gene involved in lipid excretion): reduces mRNA expression
